Data published in patent US8486943B2, “Tetrahydrocyclopenta[b]indole androgen receptor modulators” (Eli Lilly and Company, priority 2008, dated 2013).
Like-named read-outs stand apart in the source and are kept apart here.

Experiments:
[1] = target: T1, human androgen receptor (AR) (Homo sapiens, UniProt P10275); assay: C2C12 AR/ARE reporter assay; format: cell-based
T1 construct: expressed in transfected cells; host or cells: mouse myoblast C2C12 cells, transient co-transfection with Fugene
T1 sequence (P10275 1-920): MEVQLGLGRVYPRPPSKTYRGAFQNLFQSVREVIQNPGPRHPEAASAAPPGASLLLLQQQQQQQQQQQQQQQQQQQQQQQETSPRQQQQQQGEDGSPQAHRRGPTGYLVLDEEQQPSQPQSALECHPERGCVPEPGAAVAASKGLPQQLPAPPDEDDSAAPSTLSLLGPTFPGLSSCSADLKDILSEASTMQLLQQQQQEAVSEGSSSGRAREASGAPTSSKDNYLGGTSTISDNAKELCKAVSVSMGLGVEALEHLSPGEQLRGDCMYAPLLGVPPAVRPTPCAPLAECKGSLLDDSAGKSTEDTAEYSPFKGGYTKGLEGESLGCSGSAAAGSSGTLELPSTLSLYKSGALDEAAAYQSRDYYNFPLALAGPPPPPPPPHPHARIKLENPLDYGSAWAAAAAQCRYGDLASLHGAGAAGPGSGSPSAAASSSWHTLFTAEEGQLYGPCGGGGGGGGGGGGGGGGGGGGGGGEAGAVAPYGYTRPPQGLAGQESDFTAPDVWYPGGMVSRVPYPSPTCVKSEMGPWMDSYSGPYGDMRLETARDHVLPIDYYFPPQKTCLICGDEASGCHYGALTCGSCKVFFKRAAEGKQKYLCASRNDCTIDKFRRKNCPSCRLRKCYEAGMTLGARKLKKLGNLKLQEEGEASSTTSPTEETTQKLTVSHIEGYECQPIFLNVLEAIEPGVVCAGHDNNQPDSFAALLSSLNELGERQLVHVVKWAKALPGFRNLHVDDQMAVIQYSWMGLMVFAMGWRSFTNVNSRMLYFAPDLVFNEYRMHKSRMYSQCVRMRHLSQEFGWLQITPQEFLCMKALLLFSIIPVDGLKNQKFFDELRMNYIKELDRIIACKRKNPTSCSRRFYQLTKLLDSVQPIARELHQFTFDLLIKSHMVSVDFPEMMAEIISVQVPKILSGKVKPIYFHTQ
Protocol: As an indicator of agonist activity in muscle tissue, the C2C12 AR/ARE reporter assay is performed. Briefly, mouse myoblast C2C12 cells are co-transfected using Fugene™ reagent. A reporter plasmid containing a GRE/ARE (glucocorticoid response element/androgen response element) and TK promoter upstream of the luciferase reporter cDNA, is transfected with a plasmid constitutively expressing human androgen receptor (AR) using viral CMV promoter. Cells are transfected in T150 cm^2 flasks in DMEM media with 4% charcoal stripped Fetal Bovine Serum (FBS). After a 5 hour incubation, transfected cells are trypsinized, plated in 96 well dishes in DMEM media containing 4% charcoal-stripped FBS, incubated for 2 h and then exposed to various concentrations of test compounds ranging from about 0.01 nM to 10 μM. After 48 h of incubations with compounds, cells are lysed and luciferase activity is determined by standard techniques. Data is fit to a 4 parameter-fit logistics to determine EC50 values. The % efficacy is determined versus maximum stimulation obtained with 10 nM methyltrienolone.

[2] = target: T2, human AR (androgen receptor) (Homo sapiens, UniProt P10275); assay: Steroid hormone nuclear receptor binding assay (AR binding)
T2 construct: expressed in transfected cells; host or cells: HEK293 cells (lysate, '293-AR lysate')
T2 sequence (P10275 1-920): T1 sequence (P10275 1-920)
Protocol: Cell lysates from human embryonic kidney HEK293 cells overexpressing human MR (mineralocorticoid receptor), GR (glucocorticoid receptor), AR (androgen receptor), or PR (progesterone receptor) are used for receptor-ligand competition binding assays to determine Ki values. Typical procedures are provided below
Briefly, steroid receptor competition binding assays are run in a buffer containing 20 mM HEPES buffer (pH=7.6), 0.2 mM EDTA, 75 mM NaCl, 1.5 mM MgCl2, 20% glycerol, 20 mM sodium molybdate, 0.2 mM DTT (dithiothreitol), 20 μg/mL aprotinin and 20 μg/mL leupeptin (assay buffer). […] Assays are typically run in 96-well format. Competing test compounds are added at various concentrations ranging from about 0.01 nM to 10 μM. Non-specific binding is determined in the presence of 500 nM aldosterone for MR binding, 500 nM dexamethasone for GR binding, or 500 nM methyltrienolone for AR and PR binding. […] Plates are mixed for 8 minutes on an orbital shaker at 4° C. The plates are then centrifuged at 3,000 rpm at 4° C. for 10 minutes. An aliquot of 120 μL of the binding reaction mixture is then transferred to another 96-well plate and 175 μL of Wallac Optiphase Hisafe 3™ scintillation fluid is added to each well. Plates are sealed and shaken vigorously on an orbital shaker. After an incubation of 2 hours, plates are read in a Wallac Microbeta counter.
The Kd for [^3H]-aldosterone for MR binding, [^3H]-dexamethasone for GR binding, [^3H]-methyltrienolone for AR binding, or [^3H]-methyltrienolone for PR binding, is determined by saturation binding. The IC50 values for compounds are converted to Ki using the Cheng-Prusoff equation.

[3] = test system: castrated (GDX) male Sprague Dawley rats; assay: Model of Efficacy and Selectivity (castrated rats, tissue wet weights); format: in vivo, rat; conditions: eight week treatment; for mean LA wet weight / mean bulbocavernous wet weight / mean prostate wet weight: oral daily
Protocol: Male Sprague Dawley rats (24 weeks old) are castrated (gonadectomized or “GDX”) according to approved procedures and allowed to waste for eight weeks. Age-matched sham-operated […] are also prepared Animals are housed in a temperature-controlled room (24° C.) with a reversed 12 hour light/dark cycle and water and food are available ad libitum.
Animals are randomized based on body weight prior to ascribing a test slot. Compounds of the present invention are administered daily by oral gavage to the castrated thirty two week old rats (body weight about 450-500 g) using a conventional vehicle such as 1% sodium carboxymethylcellulose (CMC)+0.25% Tween 80+0.05% AntiFoam® in sterile H2O. Sham operated rats treated with vehicle alone are used as a treatment positive controls whereas castrated rats treated only with vehicle are used as treatment negative control.
Test animals are dosed daily over a two or eight week timeframe with, for example, 0.3, 1, 2, 3, or 6 mg/kg/day of a compound of the present invention. After the treatment period, animals are sacrificed and the wet weight of the Levator Ani (LA) muscle and the bulbocavernous muscle in each test group may determined and compared to the wet weight of the Levator Ani and the bulbocavernous muscle from the castrated, vehicle-only control group (after weighing, the bulbocavernous muscle may be flash frozen in liquid nitrogen for later use in measuring nitric oxide synthase mRNA, as described below) As an indicator of tissue selective activity, the wet weight of the prostate from test animals may be similarly compared to the wet weight of the prostate from the castrated, vehicle-only group.

[4] = test system: penile nitric oxide synthase (pnNOS) mRNA; assay: pnNOS mRNA by real-time quantitative PCR in bulbocavernosum tissue of treated castrated rats; format: in vivo, rat; conditions: eight weeks
Protocol: (§1) RNA is isolated from frozen bulbous and corpus cavernosum tissues that are obtained at necropsy from castrated Sprague Dawley rats that are prepared and dosed essentially as described above for the Model of Efficacy and Selectivity. cDNA is synthesized from 2 μg of RNA using a high capacity cDNA kit according to the manufacturer's instructions.
(§2) Real-time quantitative PCR is then performed according to the fluorescent TaqMan® methodology (Applied Biosystems). Assays-on-Demand™ (Applied Biosystems) probes are used for the rat […] nitric oxide synthase transcript (eNOS) while probes are designed for the rat penile specific isoform of neuronal nitric oxide synthase (pnNOS) using probe designer software (Applied Biosystems). The probes are designed to span a 102 bp region of the rat neuronal nitric oxide synthase gene (pnNOS) that is specific to pnNOS (positions 2865-2967). MGB™ Primer sequences are 5′CCGGAACCCTTGCGTTT 3′ (SEQ ID NO:1) (forward) and 5′[…] 3′ (SEQ ID NO:2) (reverse) and the probe sequence is 5′CCCGTAAAGGGCCT 3′ (SEQ ID NO:3) (FAM NFQ). Assays-on-Demand™ probe sets for the PPIB transcript are used as an internal control. PCR is performed on an ABI Prism 7700 Sequence Detection System at the following thermocycler conditions: 2 min. at 50° C., 10 min. at 95° C., and 40 cycles at 95° C. for 30 s, and 60° C. for 1 min. All reactions are carried out in triplicate.

[5] = test system: epithelial nitric oxide synthase (eNOS) mRNA; assay: eNOS mRNA by real-time quantitative PCR in corpus cavernosum tissue of treated castrated rats; format: in vivo, rat; conditions: 2 mg/kg/day, two weeks
Protocol: as §1, §2

**Q.** Which EC50 ([1]; mouse myoblast C2C12 cells transfected with human AR, no unit printed for these values, read-out: EC50 in the C2C12 AR/ARE reporter assay) does the source give for `CC(C)OC(=O)N[C@H]1Cc2c(n(C[C@@H]3N(C)CC[C@@]3(C)O)c3ccc(C#N)cc23)C1` (relative stereo) [Example 6, [(S)-7-Cyano-4-(trans-3-hydroxy-1-methyl-3-methyl-pyrrolidin-2-ylmethyl)-1,2,3,4-tetrahydro-cyclopenta[b]indol-2-yl]-carbamic acid isopropyl ester] here?
**A.** Its EC50 is ~0.3 nM.

**Q.** Which results are given for `CC(C)OC(=O)N[C@H]1Cc2c(n(C[C@H]3NCC[C@@H]3O)c3ccc(C#N)cc23)C1` [Example 1, [(S)-7-Cyano-4-((2R,3S)-3-hydroxy-pyrrolidin-2-ylmethyl)-1,2,3,4-tetrahydrocyclopenta[b]indol-2-yl]-carbamic acid isopropyl ester]?
**A.** EC50 [1]: ~20 nM; Ki [2]: ~51 nM

**Q.** For `CC(C)OC(=O)N[C@H]1Cc2c(n(C[C@@H]3[C@@H](O)CCN3C)c3ccc(C#N)cc23)C1` [Example 2, [(S)-7-Cyano-4-((2R,3S)-3-hydroxy-1-methyl-pyrrolidin-2-ylmethyl)-1,2,3,4-tetrahydrocyclopenta[b]indol-2-yl]-carbamic acid isopropyl ester], which EC50 [1] is on record?
**A.** Its EC50 is ~1 nM.

**Q.** And the “mean LA wet weight” value ([3]; 0.3 mg/kg)?
**A.** Its value is “about 0.137 g”.

**Q.** And the “mean bulbocavernous wet weight” value ([3]; 0.3 mg/kg)?
**A.** Its value is “about 0.476 g”.

**Q.** And the “mean prostate wet weight” value ([3]; 0.3 mg/kg)?
**A.** Its value is “about 72.4 mg”.

**Q.** And the “mean LA wet weight” value ([3]; 1.0 mg/kg)?
**A.** The value was “about 0.182 g”.

**Q.** What about the “mean bulbocavernous wet weight” value ([3]; 1.0 mg/kg) of the same molecule?
**A.** Its value is “about 0.582 g”.

**Q.** And the “mean prostate wet weight” value ([3]; 1.0 mg/kg)?
**A.** Its value is “about 102.8 mg”.

**Q.** And the “mean LA wet weight” value ([3]; 3.0 mg/kg)?
**A.** Its value is “about 0.205 g”.

**Q.** And the “mean bulbocavernous wet weight” value ([3]; 3.0 mg/kg)?
**A.** The value was “about 0.698 g”.

**Q.** And the “mean prostate wet weight” value ([3]; 3.0 mg/kg)?
**A.** Its value is “about 147.4 mg”.

**Q.** What about the “mean LA wet weight” value ([3]; 6.0 mg/kg) of the same molecule?
**A.** The value was “about 0.264 g”.

**Q.** What about the “mean bulbocavernous wet weight” value ([3]; 6.0 mg/kg) of the same molecule?
**A.** Its value is “about 0.955 g”.

**Q.** And the “mean prostate wet weight” value ([3]; 6.0 mg/kg)?
**A.** Its value is “about 271.8 mg”.

**Q.** What about the “Levator ani weight in comparison to the castrated control group” value ([3]; 0.3-6.0 mg/kg) of the same molecule?
**A.** Its value is “dose dependent increase”.

**Q.** And the “bulbocavernous weight in comparison to the castrated control group” value ([3]; 0.3-6.0 mg/kg)?
**A.** The value was “dose dependent increase”.

**Q.** What about the pnNOS expression ([4]; 0.3 mg/kg) of the same molecule?
**A.** Its pnNOS expression is “about 97 % of control”.

**Q.** What about the pnNOS expression ([4]; 1.0 mg/kg) of the same molecule?
**A.** Its pnNOS expression is “about 93 % of control”.

**Q.** And the pnNOS expression ([4]; 3.0 mg/kg)?
**A.** Its pnNOS expression is “about 153 % of control”.

**Q.** What about the pnNOS expression ([4]; 6.0 mg/kg) of the same molecule?
**A.** The pnNOS expression was “about 248 % of control”.

**Q.** And the “penile nitric oxide synthase (pnNOS) mRNA” value ([4]; 0.3-6.0 mg/kg)?
**A.** Its value is “dose dependent increase”.

**Q.** What about the Ki [2] of the same molecule?
**A.** Its Ki is ~11 nM.

**Q.** And the eNOS expression [5]?
**A.** Its eNOS expression is “about 159 % of control”.

**Q.** With `CC(C)OC(=O)N[C@H]1Cc2c(n(Cc3ccccc3O)c3ccc(C#N)cc23)C1` [Example 9, [(S)-7-Cyano-4-(2-hydroxy-benzyl)-1,2,3,4-tetrahydro-cyclopenta[b]indol-2-yl]-carbamic acid isopropyl ester] as the molecule, how does the EC50 [1] read?
**A.** Its EC50 is ~0.3 nM.

**Q.** And the Ki [2]?
**A.** The Ki was ~0.8 nM.
